In patent US11059807B2, “Amine cationic lipids and uses thereof” (Dicerna Pharmaceuticals, Inc., priority 2011, dated 2021):

Legend:
[1] = system: HPRT1 mRNA in mouse liver; assay: In vivo knockdown of HPRT1 mRNA in mouse liver, lipid particles with DsiRNA; details: CD1 mice; for % mRNA Knockdown: single IV dose 5 mg/kg, HPRT1 DsiRNA; for % mRNA Knockdown / mrna remaining at 5 mg/kg: 48 hours; for gene silencing at the lower dose: single dose 1 mg/kg, FIG. 12; for mrna remaining at 5 mg/kg: Mus musculus, single dose 5 mg/kg, FIG. 11, read-out: remaining mRNA levels
Protocol: Formulations were prepared with the following approximate percentages: 20 mol % of one of either L-1, L-2, L-5, L-6, L-7, L-8, L-22, or L-30; 26 mol % of DODMA; 3 mol % of PEG2000-DMPE; 3 mol % of PEG2000-DMG; 13 mol % of DSPC; and 33 mol % of cholesterol. The formulation further included a DsiRNA:total lipid ratio of about 1:20 (w/w).
Approximately 4-week old CD1 female mice were administered a single dose (either 1 mg/kg or 5 mg/kg) of the lipid particle formulation with a dosing volume of 10 μL/g of body weight by intravenous administration via a tail vein. After 48 hours (post-dosing), tissues were collected in RNALater (Qiagen). In the end point analysis, the total RNA was isolated from the mouse liver for RT-qPCR. The RNA sample was heated at 70° C., for 5 minutes with Oligo(dT) primers before RT. In the PCR reaction, mHPRT expression was normalized with RPL23 (a housekeeping gene, used as a control herein). FIGS. 11 and 12 show data with error bars with mean±SD for n=5 animals/group.

[2] = TNS fluorescence method, apparent pKa of lipid in formulation; type: physicochemical; details: apparent pKa of the formulation, pH at half-maximal TNS fluorescence
Description: The TNS fluorescence method may be used to determine the apparent pKa of the lipid in the formulation. TNS (2-(p-toluidino)-6-naphthalene sulfonic acid) is a negatively charged fluorescent dye whose fluorescence is quenched in the presence of water. […] The increase in the fluorescence can thus be used to estimate the ionization of a cationic lipid when present in different pH environment. Methods of determining pKa using TNS are known in the art, e.g., as described in the Examples.
To determine pKa values of the cationic lipids of the invention, formulations (concentration of 1 mM) were incubated in phosphate buffer at different pH values, to which TNS dissolved in DMSO was added (resulting final concentration of 6 μM TNS). Fluorescence of the resulting solution was measured on a SpectraMax® M3 fluorescence plate reader with excitation wavelength of 325 nm and emission wavelength of 435 nm. The measured fluorescence of TNS was fitted with a three-parameter sigmoidal function shown in equation 1.
The pH at which half of the maximum fluorescence was reached was reported as the apparent pKa of the formulation, where a and b are dimensionless parameters reflecting the maximum observed fluorescence and slope of the sigmoidal function, respectively.

[3] = Tolerability of lipid formulations in CD-1 mice (serum clinical chemistry, body weight, liver); type: in vivo, mouse; details: female CD-1 mice, 2 doses (qod) 10 mg/kg DsiRNA
Protocol: In order to assess the tolerability of a lipid formulation containing an amino-amine or amino-amide cationic lipid of the invention and a dsRNA, female CD-1 mice were injected with L-6 and L-30 formulations [administered in 2 doses (qod) at 10 mg/kg DsiRNA dose, about 200 mg/kg total lipid dose each] and serum samples were collected 48 hours after the second dose. Serum samples were tested for a panel of clinical chemistry assessments, including liver function tests (LFTs) via measurement of enzymes alanine transaminase (ALT) and aspartate transaminase (AST). Phosphate buffered saline (PBS) was used as vehicle control group. ALT and AST elevation was <3x of PBS group for formulations L-6 and L-30. There were also no changes in body weight or liver observed for L-6 and L-30 formulations. Thus, L-6 and L-30 formulations were well-tolerated. Thus, any of the lipids described herein, and formulations thereof, would be useful for the delivery of one or more agent, e.g., polyanionic or antisense payloads.

[4] = system: HPRT1 mRNA in liver tissues; assay: HepG2 orthotopic liver tumor model: HPRT1 mRNA knockdown in liver; type: in vivo, mouse; details: 5 mg/kg DsiRNA IV, Table 8 formulation, FIG. 14
Description: In order to assess the efficiency of targeting and subsequent functionality of an amino-amine or amino-amide cationic lipid formulation of dsRNA, a second intrahepatic tumor model was utilized. Liver tumors were established in mice by direct intrahepatic injection of HepG2 tumor cells. Female nu/nu mice were used as hosts for the HepG2 tumors. Maintaining the mice under anesthesia using Avertin (Sigma), a single 1-cm incision across the midline was made below the sternum, and the left lateral hepatic lobe is exteriorized. Approximately 3×10^6 HepG2 cells suspended in 60 μL of 50% PBS/50% Matrigel™ (BD) are injected slowly into the lobe at a shallow angle using a Hamilton syringe and a 30-gauge needle. A swab was then applied to the puncture wound to stop any bleeding prior to suturing. Mice were allowed to recover from anesthesia in a sterile cage and monitored closely for 2-4 hours before being returned to conventional housing. About three weeks after tumor implantation, mice were randomized into treatment groups. […] The dose was calculated based on mg of dsRNAs/kg of body weight basis according to individual animal weights. […] Body weights were monitored throughout the duration of the study as an indicator of developing tumor burden and treatment tolerability. For efficacy studies, defined humane end points were determined as a surrogate for survival. […]

Hep3B tumor = assay: Hepatocellular carcinoma anti-tumor efficacy, orthotopic Hep3B model (serum AFP, tumor weight); type: in vivo, mouse; details: 5 mg/kg active DsiRNA IV, vs control payload and PBS; for reducing serum AFP: FIG. 15; for reducing tumor weight: FIG. 16
Description: Liver tumors were established in mice by direct intrahepatic injection of Hep3B tumor cells as described in Example 10. About two weeks after tumor implantation, mice were randomized into treatment groups. Mice (n=6 per group) received: either (1) the amino-amine or amino-amide lipid formulation of a control dsRNA; (2) the amino-amine or amino-amide lipid formulation of an active dsRNA; or (3) vehicle control, as administered by standard intravenous (i.v.) injection via the lateral tail vein. The dose was calculated based on mg of dsRNAs/kg of body weight basis according to individual animal weights. In the experiments that generated the results shown in FIGS. 15 and 16, animals were dosed at 5 mg/kg DsiRNA with L-6- or L-30-formulated lipid particles. Table 8 above presents specific compositions of lipid formulations comprising the L-6 and L-30 lipids used in the instant studies.
Body weights were monitored throughout the duration of the study as an indicator of developing tumor burden and treatment tolerability. For efficacy studies, defined humane end points were determined as a surrogate for survival. Assessments were made based on a combination of clinical signs, weight loss, and abdominal distension to define the day of euthanization due to tumor burden. Tumor tissues were removed from the animals of different treatment groups and tumor weights were measured to determine efficacy of different treatment groups. Serum α-fetoprotein (AFP) levels were also measured as a biomarker for tumor burden.

Row | Structure (SMILES) | % mRNA Knockdown [1] | gene silencing at the lower dose [1] | mrna remaining at 5 mg/kg [1] | pKa [2] | changes in body weight or liver [3] | tolerability [3] | delivery of anti-HPRT1 DsiRNA payload to liver tissues [4] | reducing serum AFP (Hep3B tumor) | reducing tumor weight (Hep3B tumor)
1 | CCCCC/C=C\C/C=C\CCCCCCCCC(CCCCCCCC/C=C\C/C=C\CCCCC)N1CCN(C)CC1 [Compound L-6] | 88.2% | effective gene silencing | 15 to 45% | 5.6 | no changes | well-tolerated | remarkably effective | remarkably effective | remarkably effective
2 | CCCCC/C=C\C/C=C\CCCCCCCCC(CCCCCCCC/C=C\C/C=C\CCCCC)NC(=O)CN(C)C [Compound L-30] | 86.4% | effective gene silencing | ~15% | 5.8 | no changes | well-tolerated | remarkably effective | remarkably effective | remarkably effective
